Experimental data taken from patent US20070117203A1, “Modulation of stem and progenitor cell growth by oscillatory fluid flow” (priority 2005, published 2007).

System: Marrow Stromal Cells (MSCs)
Assay: Intracellular calcium response of MSCs to oscillatory fluid flow in the presence of calcium channel blockers
Conditions: control 67.1±11.2
Description: Calcium Imaging: Intracellular levels of Ca^2+ were quantified using a ratiometric imaging technique with the Ca^2+ sensitive dye Fura-2 Acetoxymethyl ester (Fura-2 AM). […] The ratio of the emission intensities F340/F380 is a quantitative measurement of intracellular calcium [Ca^2+]i.
Cells were cultured on UV transparent quartz slides for 3 days. Prior to exposure to OFF, cells were washed with PBS, incubated with 10 μM Fura-2 AM in A-MEM and 2% FBS for 30 min at 37° C., and then washed again with PBS. Following Fura-2 loading, the slides were mounted in a parallel plate flow chamber, and then fixed to the stage of a Nikon TE300 epi-fluorescent microscope (Technical Instruments SF, Burlingame, Calif.). The setup was left undisturbed for 30 min, during which the cells were perfused with media at 0.05 ml/min. Cells were then subjected to 3 minutes of OFF at 1 Hz with peak shear stress of 20 dynes/cm^2. […] Ratio images were recorded and analyzed using image analysis software (Metafluor; Universal Imaging, West Chester, Pa.). […]
Data analysis: Calcium imaging data was analyzed using the Rainflow cycle counting numerical procedure. This method identifies oscillations in the time history data and is used to quantify [Ca^2+]i responses from background noise. Calcium imaging data is expressed as the fraction of cells responding i SE and mean change in [Ca^2+]i±SE. […]

Compound	percentage of cells that responded to OFF with a change in intracellular calcium (50 nM, empties intracellular calcium stores, significant decrease (p<0.05))	percentage of cells that responded to OFF with a change in intracellular calcium (10 μM, stretch activated channel blocker, not different from control)
C/C=C(/C)C(=O)O[C@H]1C(C)=C2[C@H]([C@@H]1OC(=O)CCCCCCC)[C@@](C)(OC(C)=O)C[C@H](OC(=O)CCC)[C@@]1(O)[C@H]2OC(=O)[C@@]1(C)O [Thapsigargin]	0±0%	–
[Cl][Gd]([Cl])[Cl] [gadolinium chloride]	–	61.1±14.7%
